pIC50: −log10 of the molar value. In brackets after ≈: the same amount, converted by molar mass. Structures can show the parent of a compound that is named as a salt. Starred links: 1 amine or outer side, 2 acyl side, 3 side chain; linkers in the order of their positions; H or OH if unused. Positions of bridges follow the written chain, without caps; N, C: chain ends. Non-standard residues stand in square brackets, D forms with d. Residues, ends and D or L forms follow the SMILES beside them. Chains are numbered I, II in the order given. Actinocin(9to1) = Cc1c2oc3c(C)ccc(C(=O)[*:1])c3nc-2c(C(=O)[*:2])c(N)c1=O; NMeV = CN[C@H](C(=O)O)C(C)C; Sar = CNCC(=O)O
Experiments:
[1] = cited from earlier work
multiple myeloma = details: oral administration; cited from earlier work
human ovarian 2774 cells = assay: DNA content, ovarian 2774 cells, combinatorial therapy; type: cell-based; details: taxol 1 ng/ml, cis-platin 100 ng/ml, troglitazone 5 or 10 μM, alone or combined
Method: (§1) […]. At the end of 3 days DNA content was determined as a measure of cell proliferation.
(§2) Concentration of cellular DNA was determined using Hoechst dye H 33258 and a Hoefer DyNA Quant fluorometer according to manufacturer's instructions. Results are expressed as μg DNA/well. All experiments were done in triplicate.

Saos-2 cells [2] = assay: DNA content (Hoechst H 33258) as measure of cell proliferation, Saos-2; type: cell-based, human
Method: Cells exposed to a single treatment of troglitazone, 5-fluorouracil, and/or cis-platinum for 3 days. […] The phrase “cell proliferation” is used herein interchangeably with “cell growth.” Concentration of cellular DNA was determined using Hoechst dye H 33258 and a Hoefer DyNA Quant fluorometer according to manufacturer's instructions. Results are expressed as μg DNA/well. All experiments were done in triplicate.

[3] = test system: three renal cell carcinoma cell lines; assay: DNA content, three renal cell carcinoma cell lines taken together; type: cell-based, human; details: 10 μM; UMCR 3, 6 and 7
Method: Human renal tumor cells (URMC 3, 6, 7) were cultured in 5% fetal bovine serum, penicillin/streptomycin, and alpha-MEM media. […] At the end of 3 days DNA content was determined as a measure of cell proliferation.
as §2

CaOV3 cells = assay: DNA content, ovarian tumor cells CaOV3; type: cell-based, human; details: 3 days; for inhibition at 10 µM: Homo sapiens, Caov-3, 72 h, read-out: inhibition of cell proliferation
Method: as §1, §2

222 cells = assay: DNA content, ovarian tumor cells 222; type: cell-based; details: Homo sapiens, 72 h, 3 days, read-out: inhibition of growth
Method: as §1, §2

PA-1 cells = assay: DNA content, ovarian tumor cells PA-1; type: cell-based; details: Homo sapiens, 72 h, 3 days, read-out: inhibition of cell proliferation
Method: as §1, §2

Saos-2 cells [4] = assay: Lactate dehydrogenase (LDH) activity in media, Saos-2; type: cell-based, human
Method: Saos-2 cells were purchased from ATCC (Rockville, Md.) and cultured in 10% fetal bovine serum, penicillin/streptomycin, and DMEM media. Cells exposed to a single treatment of troglitazone, 5-fluorouracil, and/or cis-platinum for 3 days. At the end of 3 days media was tested for lactate dehydrogenase (LDH) activity as a measure of cell toxicity and DNA content was determined as a measure of cell proliferation. The phrase “cell proliferation” is used herein interchangeably with “cell growth.”
Media from treated cells was assayed for LDH activity with a colorimetric dye-oxidation method which has been previously described (11). Briefly, the assay mix including lactate, NAD, INT dye and diaphorase in PBS was added to media from the cells and incubated 30 minutes. Red color development is indicative of INT […] to formazan product, giving an indication of LDH activity when measured at 490 nm.

Saos-2 cells [5] = assay: [3H]thymidine incorporation, Saos-2; type: cell-based, human
Method: Saos-2 cells (10,000/well) were seeded into wells of 12-well plates and grown for 4 days until near confluent. […]. [Methyl-^3H]thymidine (1 μCi) and thymidine (3 μM) were then added to each well, and the incubation was continued for another 4 h. Cells were rinsed with ice-cold PBS twice and were treated with ice-cold 10% TCA. The cells were then rinsed twice with PBS and solubilized in 400 μl of solution composed of 0.03% SDS in 0.3 N NaOH. The extracts were neutralized with HCl, and radioactivity incorporated into the cells was quantified by liquid scintillation spectrometry.

p21 mRNA = assay: Ribonuclease protection assay, cell cycle regulator mRNA; type: cell-based, human; details: single treatment 1 μM, 24 hr, normalized to GAPDH
Method: To determine whether troglitazone effected any of the cell cycle regulator genes, ribonuclease protection assay (RPA) was performed measuring mRNAs encoding p130, Rb, p107, p53, p57, p27, p21, p19, p18, p16, p14/15 and the housekeeping gene products L32 and GAPDH. […] Cells were lysed and total RNA was isolated. […] Ribonuclease protection assay was performed using kit according to manufacturer instructions (PharMingen, San Diego, Calif.). Conditions that were optimized included using 20 μg of total RNA from Hs578T cells and a 1:200 dilution of RNAse A/T (200 units/ml RNase A and 10,000 units/ml RNase T). […] Results are reported as the ratio of […] signal. All experiments were done in triplicate from different RNA preparations.

PPARγ in UMCR 3 cells = assay: PPRE/luciferase reporter, UMCR 3; type: cell-based, human; details: 10 μM, 24-hour treatment
Method: A tandem PPRE luciferase expression plasmid was constructed using three copies of a consensus PPRE 5′ to the luciferase gene. Cells were transfected using the calcium phosphate method of transfection. 10 μg of PPRE/luciferase reporter plasmid was transfected into URMC 3, 6, and 7 cells. A CMV-CAT reporter plasmid was cotransfected (0.5 μg) with PPRE/luciferase as an internal control for transfection efficiency. CAT activity was measured by ELISA as described by Boehringer-Mannheim. […] Cells lysates were prepared and luciferase activity was determined using an AutoLumat luminometer.

[6] = humans; cited from earlier work
HCT 15 cells = details: cited from earlier work
HCT 116 cells = details: cited from earlier work

For `CC[C@]1(O)C[C@@H]2CN(CCc3c([nH]c4ccccc34)[C@@](C(=O)OC)(c3cc4c(cc3OC)N(C)[C@H]3[C@@](O)(C(=O)OC)[C@H](OC(C)=O)[C@]5(CC)C=CCN6CC[C@]43[C@@H]65)C2)C1` [vinblastine], the oral absorption ([1]; in vivo) is given as “Unpredictable absorption”.
In the case of `N[C@@H](Cc1ccc(N(CCCl)CCCl)cc1)C(=O)O` [Melphalan, 4-[bis(2-chloroethyl)amino]-L-phenylalanine], the “patients showing a favorable response” value (multiple myeloma) is given as “one third to one half”.
For `COc1cccc2c1C(=O)c1c(O)c3c(c(O)c1C2=O)C[C@@](O)(C(C)=O)C[C@@H]3O[C@H]1C[C@H](N)[C@H](O)[C@H](C)O1` [Daunorubicin, 5,12-Naphthacenedione, (8S-cis)-8-acetyl-10-[(3-amino-2,3,6-trideoxy-a-L-lyxo-hexanopyranosyl)oxy]-7,8,9,10-tetrahydro-6,8,11-trihydroxy-10-methoxy-, hydrochloride], the oral absorption ([1]; in vivo) is given as “poor”.
For `COc1cccc2c1C(=O)c1c(O)c3c(c(O)c1C2=O)C[C@@](O)(C(=O)CO)C[C@@H]3O[C@H]1C[C@H](N)[C@H](O)[C@H](C)O1` [Doxorubicin, 5,12-Naphthacenedione, (8s-cis)-10-[(3-amino-2,3,6-trideoxy-a-L-lyxo-hexopyranosyl)oxy]-7,8,9,10-tetrahydro-6,8,11-trihydroxy-8-(hydroxyacetyl)-1-methoxy-hydrochloride], the oral absorption ([1]; in vivo) is given as “absorbed poorly” and the “secreted into the bile” value ([1]; in vivo) is given as “Forty to 50”.
For `N.N.[Cl][Pt][Cl]` [cis-platin], the “inhibition of cell proliferation” value (human ovarian 2774 cells) is listed as 55% and the oral absorption ([1]; in vivo) is listed as “not absorbed orally”.
In the case of `O=C(O)CCCc1ccc(N(CCCl)CCCl)cc1` [Chlorambucil, 4-[bis(2-chlorethyl)amino] benzenebutanoic acid], the oral absorption ([1]; in vivo) is listed as “rapidly and completely absorbed”.
In the case of `CC[C@]1(O)C[C@H]2CN(CCc3c([nH]c4ccccc34)[C@@](C(=O)OC)(c3cc4c(cc3OC)N(C=O)[C@H]3[C@@](O)(C(=O)OC)[C@H](OC(C)=O)[C@]5(CC)C=CCN6CC[C@]43[C@@H]65)C2)C1` [vincristine], the oral absorption ([1]; in vivo) is given as “Unpredictable absorption”.
With `Cc1c(C)c2c(c(C)c1OC(=O)CCC(=O)O)CC[C@@](C)(CCC[C@H](C)CCC[C@H](C)CCCC(C)C)O2` [Vitamin E succinate] the “inhibition of cell proliferation, compounds compared (FIG. 7)” value (Saos-2 cells [2]; single treatment) was “somewhat less effective than troglitazone”.
`CC(=O)O[C@H]1C(=O)[C@@]2(C)[C@H]([C@H](OC(=O)c3ccccc3)[C@]3(O)C[C@H](OC(=O)[C@H](O)[C@@H](NC(=O)c4ccccc4)c4ccccc4)C(C)=C1C3(C)C)[C@]1(OC(C)=O)CO[C@@H]1C[C@@H]2O` [taxol] showed an inhibition at 0.001 µg/mL (human ovarian 2774 cells; Homo sapiens, read-out: inhibition of cell proliferation) of 28%.
For `O=NN(CCCl)C(=O)NC1CCCCC1` [Lomustine, 1-(2-chloro-ethyl)-3-cyclohexyl-1 nitrosourea], the “serum half-life of the metabolites” value ([1]; in vivo) is given as 16 to 48 h and the “radioactivity excreted as degradation products within 24 hours” value ([1]; oral, 30 mg/m^2 to 100 mg/m^2, radioactive drug) is given as “about half”.
For `Cc1c2oc3c(C)ccc(C(=O)N[C@@H]4C(=O)N[C@H](C(C)C)C(=O)N5CCC[C@H]5C(=O)N(C)CC(=O)N(C)[C@@H](C(C)C)C(=O)O[C@@H]4C)c3nc-2c(C(=O)N[C@@H]2C(=O)N[C@H](C(C)C)C(=O)N3CCC[C@H]3C(=O)N(C)CC(=O)N(C)[C@@H](C(C)C)C(=O)O[C@@H]2C)c(N)c1=O` [Actinomycin D] (I: T[dV]P[Sar][NMeV] / II: T[dV]P[Sar][NMeV]; ester I:1-I:C, II:1-II:C; linker I:N-II:N via Actinocin(9to1)), the “passage of the blood-brain barrier” value ([1]; in vivo) is given as “does not pass”.
With `CC1=C(/C=C/C(C)=C\C=C\C(C)=C\C(=O)O)C(C)(C)CCC1` [9-cis-retinoic acid] the “growth inhibitory activity (FIGS. 13-15)” value [3] was “little on no growth inhibitory activity”.
`CN(CCOc1ccc(CC2SC(=O)NC2=O)cc1)c1ccccn1` (stereo not shown) [rosiglitazone] gave an inhibition at 10 µM (CaOV3 cells) of 60%, an inhibition at 10 µM (222 cells) of 4% and an inhibition at 10 µM (PA-1 cells) of 60 to 70%.
With `O=C(O)CCC(=O)O` [succinic acid] the “effect upon cell proliferation” value (Saos-2 cells [2]; 100 μM) was “no effect”.
In the case of `Cc1c(C)c2c(c(C)c1O)CCC(C)(COc1ccc(CC3SC(=O)NC3=O)cc1)O2` (racemic) [troglitazone, ±5-[[4-[(3,4-dihydro-6-hydroxy-2,5,7,8-tetramethyl-2H-1-benzopyran-2-yl)methoxy]phenyl]methyl]-2,4-thiazolidinedione], the IC50 (Saos-2 cells [2]; Homo sapiens, 72 h, Saos-2 cells, 3 days after a single treatment, read-out: IC50 (DNA content per well)) was 1 to 10 µg/mL (≈ 2.26 to 22.6 µM), the “ability to inhibit cell proliferation in combinatorial therapy (5-FU, doxorubicin)” value (Saos-2 cells [2]; compared with the other thiazolidinediones) was “superior to pioglitazone and BRL49653” and the “LDH levels in the media as compared to controls” value (Saos-2 cells [4]; any concentration used, 3 days of treatment) was “not altered”. For the same compound, the “lethality to Saos-2 cells (LDH activity)” value (Saos-2 cells [4]; up to 30 μg/ml, 3 days) was “not lethal”, the “decrease in 3H-thymidine incorporation” value (Saos-2 cells [5]; 10 μg/ml, 24 h exposure) was about 45% and the inhibition at 5 µg/mL (Saos-2 cells [5]; Homo sapiens, SAOS-2, read-out: inhibition of 3H-uridine uptake, 5 μg/ml, 18 hours) was 16%. For the same compound, the inhibition at 10 µg/mL (Saos-2 cells [5]; Homo sapiens, SAOS-2, read-out: inhibition of 3H-uridine uptake, 10 μg/ml, 18 hours) was 43%, the “increase in p21 mRNA levels” value (p21 mRNA) was 2.6 fold and the “stimulation of PPRE/luciferase transcription” value (PPARγ in UMCR 3 cells) was 3 fold. For the same compound, the “inhibition of cell proliferation” value (CaOV3 cells; 10 μM) was “no inhibitory activity”, the inhibition at 10 µM (222 cells) was 50% and the inhibition at 10 µM (PA-1 cells) was 60 to 70%.
For `CO[C@@]12[C@H](COC(N)=O)C3=C(C(=O)C(C)=C(N)C3=O)N1C[C@@H]1N[C@@H]12` [mitomycin], the “dose recovered/excreted in the urine” value [6] is given as “Approximately 10%”.
In the case of `O.O=P1(N(CCCl)CCCl)NCCCO1` (stereo not shown) [Cyclophosphamide, 2H-1,3,2-Oxazaphosphorin-2-amine, N,N-bis(2-chloroethyl)tetrahydro-, 2-oxide, monohydrate], the “stability in the gastrointestinal tract” value ([1]; in vivo) is given as “stable”.
`CCc1ccc(CCOc2ccc(CC3SC(=O)NC3=O)cc2)nc1` (stereo not shown) [pioglitazone] gave an inhibition at 10 µM (CaOV3 cells) of 60%, an inhibition at 10 µM (222 cells) of 36% and an inhibition at 10 µM (PA-1 cells) of 60 to 70%.
For vitamin E, the “cell killing (microscopic examination and LDH levels in the media)” value (Saos-2 cells [4]; 100 μM) is given as “cells are being killed”, the pIC50 (HCT 15 cells) is given as 3.12 and the pIC50 (HCT 116 cells) is given as 2.52.
With `CC1=C(/C=C/C(C)=C/C=C/C(C)=C/C(=O)O)C(C)(C)CCC1` [all trans retinoic acids] the “growth inhibitory activity (FIGS. 13-15)” value [3] was “little on no growth inhibitory activity”.

Source: US20040266834A1, “Thiazolidinediones alone or in cabination with other therapeutic agents for cancer therapy” (priority 1999, published 2004)
